The results in this text go back to PubChem BioAssay (NCI).

Several values for one entry are separate records, joined by “and”; a condition that tells them apart may be missing. Equal entries are not always repeated.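 1) Cells in 96-well plates. 2) Compound, 48 h, 5 concentrations. 3) Linear interpolation between surrounding doses. 4) Unreached endpoint = highest concentration. GI50 is the concentration that inhibits growth by half. Definition used: TGI = concentration required for complete inhibition of growth.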 Where only a bound is given, the exact number is not on record here.

Among the test systems are DMS 273 small cell lung; XF 498 CNS; LXFL 529 NSCLC; HOP-18 NSCLC; MDA-MB-435; BT-549 breast; MDA-MB-231 breast; MDA-N.
What all share (test): inhibition of tumour cell growth, NCI panel, 48 h

In the case of `CN(C)/C=C/C(=O)c1cccc(C(=O)/C=C/N(C)C)n1`, the TGI in the experiment with DMS 273 small cell lung, with XF 498 CNS, with LXFL 529 NSCLC and with HOP-18 NSCLC was greater than 100 µM each time.

`CC(=O)O[C@H]1Cc2c([nH]c3ccccc23)[C@@H](c2ccc(Cl)cc2)N1C(=O)CCNC(C)(C)C`: the results for the GI50 in the experiment on MDA-MB-435, in the experiment with BT-549 breast and in the experiment with MDA-MB-231 breast were 4.68 µM, 4 µM and 1.79 µM, respectively. Also, the values for the TGI in the experiment on MDA-MB-435, in the experiment on BT-549 breast and with MDA-MB-231 breast were 9.06 µM, 8.27 µM and 6.07 µM, respectively.

As to `CC1CC(=O)CC[C@@H]1OCc1ccccc1` (stereo partly specified), the TGI with DMS 273 small cell lung, in the experiment with XF 498 CNS and in the experiment on HOP-18 NSCLC was greater than 100 µM each time.

On to `NC(=O)c1ccc(S(=O)(=NS(=O)(=O)c2ccccc2)c2ccc(C(N)=O)cc2)cc1`, for which the TGI in the experiment with MDA-MB-435, with BT-549 breast, with MDA-N and in the experiment on MDA-MB-231 breast was greater than 100 µM each time.

On to `COC(=O)C1=C(c2cc(OC)c(OC)c(OC)c2)OC(c2cc(OC)c(OC)c(OC)c2)C1` (stereo unspecified), for which the TGI was greater than 100 µM with DMS 273 small cell lung, 72 µM in the experiment with XF 498 CNS, 54.9 µM in the experiment with LXFL 529 NSCLC and 50.2 µM in the experiment with HOP-18 NSCLC.

As to `CCCN(CCC)c1c([N+](=O)[O-])cc(C(N)=O)cc1[N+](=O)[O-]`, the TGI in the experiment on DMS 273 small cell lung, in the experiment with XF 498 CNS and in the experiment on LXFL 529 NSCLC was greater than 100 µM in each case.

As to `Clc1cc(-c2csc(Cl)c2)cs1`, the TGI with MDA-MB-435, in the experiment on MDA-N and with MDA-MB-231 breast was greater than 100 µM in each case.

For the compound `O=C(O)c1ccccc1/C=C1/Nc2ccccc2C1=O`, the TGI in the experiment with MDA-MB-435, in the experiment on MDA-N and with MDA-MB-231 breast was greater than 100 µM in each case.

Turning to `COc1ccccc1NC(=O)NS(=O)(=O)c1ccccc1`, the TGI in the experiment on DMS 273 small cell lung, in the experiment with LXFL 529 NSCLC and in the experiment with HOP-18 NSCLC was greater than 100 µM each time.

In the case of `NC(=S)c1cn(C2OC(CO)C(O)C2O)c2ncnc(N)c12` (stereo unspecified), the GI50 is 0.0633 µM with MDA-MB-435, 0.149 µM with BT-549 breast and 0.152 µM with MDA-MB-231 breast. Also, the TGI with MDA-MB-435 is 0.262 µM; in the experiment on BT-549 breast, 1.65 µM; in the experiment on MDA-MB-231 breast, greater than 100 µM.

On to `Cc1nc(C)c(C(=O)NNC(=O)c2ccccc2)cc1C(=O)NNC(=O)c1ccccc1`, for which the TGI with MDA-MB-435, in the experiment on BT-549 breast, in the experiment on MDA-N and in the experiment with MDA-MB-231 breast was greater than 100 µM in each case.

Turning to `Cn1cc(C2=C(c3cn(C)c4cc(Cl)ccc34)C(=O)NC2=O)c2ccccc21`, the values for the GI50 with MDA-MB-435, with BT-549 breast and with MDA-MB-231 breast were 0.0475 µM, 0.623 µM and 0.125 µM, respectively. Also, the results for the TGI in the experiment with MDA-MB-435, with BT-549 breast and in the experiment on MDA-MB-231 breast were 0.12 µM, greater than 25 µM and greater than 5.58 µM, respectively.

Consider `Cn1ccnc1C(=O)/C=C/c1ccc(CC(=O)Nc2cc(F)c(F)c(F)c2)cc1`, for which the GI50 with MDA-MB-435 was 3.36 µM; with BT-549 breast it was 1.15 µM; in the experiment with MDA-MB-231 breast, 4.04 µM. For the same compound, the results for the TGI in the experiment on MDA-MB-435, in the experiment with BT-549 breast and in the experiment with MDA-MB-231 breast were 10.4 µM, 4.47 µM and greater than 25 µM, respectively.

In the case of `CCn1c(-c2nonc2N)nc2c(C#CC(C)(C)O)ncc(OCC3CCNCC3)c21`, the GI50 in the experiment on MDA-MB-435 was 13.7 µM; with BT-549 breast it was 11 µM; with MDA-MB-231 breast, greater than 25 µM. Also, the TGI in the experiment on MDA-MB-435, with BT-549 breast and in the experiment with MDA-MB-231 breast was greater than 25 µM throughout.

Turning to `CCC[CH2][Sn]1([CH2]CCC)[O]N=Cc2ccccc2[O]1`, the GI50 in the experiment on DMS 273 small cell lung was 1.32 µM; in the experiment on XF 498 CNS it was 1.39 µM; in the experiment with LXFL 529 NSCLC it was 0.142 µM. The TGI was determined as 2.61 µM in the experiment with DMS 273 small cell lung, 2.72 µM in the experiment with XF 498 CNS and 0.447 µM in the experiment on LXFL 529 NSCLC.

On to `CCN(CC)c1ccc(/C=C2/NC(=O)NC2=O)cc1`, for which the GI50 with MDA-MB-435 is 0.42 µM; in the experiment with BT-549 breast, 7.49 µM; in the experiment with MDA-MB-231 breast, 28.7 µM. Also, the TGI in the experiment on MDA-MB-435 was 3.53 µM; in the experiment with BT-549 breast, greater than 100 µM; in the experiment with MDA-MB-231 breast, greater than 100 µM.

With `COc1ccc2nc(NC(=O)C(=O)C(C#N)c3ccc(CC#N)cc3)sc2c1` (stereo unspecified), the TGI with DMS 273 small cell lung, with LXFL 529 NSCLC and in the experiment with HOP-18 NSCLC was greater than 100 µM throughout.

As to `Nc1cc2ccncc2c2ccccc12`, the GI50 in the experiment on MDA-MB-435 was 17.2 µM; in the experiment on BT-549 breast, 23.9 µM; with MDA-MB-231 breast it was 16.4 µM. Besides, the TGI in the experiment with MDA-MB-435 was 60 µM; with BT-549 breast, greater than 100 µM; in the experiment on MDA-MB-231 breast, 96.1 µM.

Regarding `CC(C(=O)C(C)O[Si](c1ccccc1)(c1ccccc1)C(C)(C)C)=P(c1ccccc1)(c1ccccc1)c1ccccc1` (stereo unspecified), the TGI in the experiment with XF 498 CNS was found to be 8.76 µM; in the experiment with LXFL 529 NSCLC, 11.7 µM; with HOP-18 NSCLC, 9.93 µM.

On to `COc1ccc(C2C3=C(COC3=O)N(CCO)c3cc4c(cc32)CCC4)cc1OC` (stereo unspecified), for which the GI50 in the experiment on MDA-MB-435 is 0.132 µM; with BT-549 breast it was 3.42 µM; in the experiment with MDA-MB-231 breast, 2.52 µM. The figures for the TGI in the experiment on MDA-MB-435, in the experiment on BT-549 breast and in the experiment with MDA-MB-231 breast were 0.448 µM, greater than 50 µM and greater than 50 µM, respectively.

Turning to `CCc1cc2c(c3[nH]ccc13)[C@@H](C)C[C@H]2C`, the figures for the TGI with DMS 273 small cell lung, in the experiment on LXFL 529 NSCLC and in the experiment with HOP-18 NSCLC were 32.7 µM, 32.8 µM and 37.2 µM, respectively.

As to `CO[C@H]1/C=C/C=C/C=C/C[C@H](OC(=O)[C@@H](C)NC(=O)C2CCCCC2)[C@H](C)[C@@H](O)/C(C)=C\CCC2=CC(=O)C=C(NC(=O)C1)C2=O`, the GI50 in the experiment on MDA-MB-435 is 0.154 µM; in the experiment with BT-549 breast it was 0.172 µM; in the experiment with MDA-MB-231 breast it was 0.137 µM. For the same compound, the figures for the TGI in the experiment on MDA-MB-435, in the experiment with BT-549 breast and in the experiment with MDA-MB-231 breast were 0.989 µM, 1.38 µM and 0.934 µM, respectively.

For the compound `COc1cc2cc(C(=O)N3C[C@H](CCl)c4c3cc(O)c3ccccc43)[nH]c2c(OC)c1OC`, the GI50 is 0.0201 µM in the experiment with MDA-MB-435 and 0.0312 µM in the experiment with BT-549 breast. Besides, the TGI in the experiment with MDA-MB-435 is 0.634 µM and 0.0912 µM; with BT-549 breast, 1.56 µM and 0.46 µM; with MDA-N, 2.13 µM; in the experiment with MDA-MB-231 breast it was 3.94 µM.
